# According to patent US20260250320A1, “LIPIDATED PEPTIDE INHIBITORS OF INTERLEUKIN-23 RECEPTOR” (Janssen Pharmaceutica NV, priority 2023, published 2026):
# *1 amine or outer side, *2 acyl side, *3 side chain or, on linkers, in order; H or OH if unused. Where a SMILES comes first, the peptide text is derived from it. Bridges are numbered along the chain shown (N, C = ends). Roman numbers before positions name the chains, in order. Side-chain parts run from the residue outwards. [ ]: non-standard residue; d: D form. The star is where a group is joined. X25 = C[N+](C)(C)C[C@@H](CC(=O)O)NC(=O)CCC(=O)CCCCC[C@H](N[*:1])C(=O)[*:2]; X19 = CC(C)(S[*:2])[C@H](N[*:3])C(=O)C[C@@H](Cc1ccc(OCCN)cc1)C(=O)[*:1]; X4 = C[N+](C)(CCCCCCc1ccc(C[C@H](N[*:1])C(=O)[*:2])cc1)CCOCCOCCN[*:3]; Me3N+(CH2)2O(CH2)2O(CH2)2CO = C[N+](C)(C)CCOCCOCCC(=O)*; Trp(7-Me) = Cc1cccc2c(C[C@H](N)C(=O)O)c[nH]c12; C18 diacid = O=C(O)CCCCCCCCCCCCCCCCC(=O)*; γGlu = O=C(O)[C@H](CCC(=O)[*:2])N[*:1]; 2Nal = N[C@@H](Cc1ccc2ccccc2c1)C(=O)O; AEF = NCCOc1ccc(C[C@H](N)C(=O)O)cc1; X2 = C[N+](C)(C)C[C@@H](CC(=O)O)N*; 3Pal = N[C@@H](Cc1cccnc1)C(=O)O; Lys(Me) = CNCCCC[C@H](N)C(=O)O; Pen = CC(C)(S)[C@H](N)C(=O)O; Suc = O=C(CCC(=O)[*:2])[*:1]; Thp = NC1(C(=O)O)CCOCC1; AEEA = NCCOCCOCC(=O)O; Sar = CNCC(=O)O
# What was measured:
# IL-23R = biological target: T1, IL-23R (Homo sapiens, UniProt Q5VWK5); assay: IL23R Reporter Assay; format: cell-based; settings: HEK293 cells containing IL-23R, IL-12Rβ1 and STAT-inducible firefly luciferase reporter; 10 ng/mL IL-23 (EC90); 5 h
# T1 construct: HEK293 cells containing IL-23R, IL-12Rβ1 and a firefly luciferase reporter gene driven by a STAT-inducible promoter (Promega); host or cells: HEK293
# T1 sequence (Q5VWK5 24-629): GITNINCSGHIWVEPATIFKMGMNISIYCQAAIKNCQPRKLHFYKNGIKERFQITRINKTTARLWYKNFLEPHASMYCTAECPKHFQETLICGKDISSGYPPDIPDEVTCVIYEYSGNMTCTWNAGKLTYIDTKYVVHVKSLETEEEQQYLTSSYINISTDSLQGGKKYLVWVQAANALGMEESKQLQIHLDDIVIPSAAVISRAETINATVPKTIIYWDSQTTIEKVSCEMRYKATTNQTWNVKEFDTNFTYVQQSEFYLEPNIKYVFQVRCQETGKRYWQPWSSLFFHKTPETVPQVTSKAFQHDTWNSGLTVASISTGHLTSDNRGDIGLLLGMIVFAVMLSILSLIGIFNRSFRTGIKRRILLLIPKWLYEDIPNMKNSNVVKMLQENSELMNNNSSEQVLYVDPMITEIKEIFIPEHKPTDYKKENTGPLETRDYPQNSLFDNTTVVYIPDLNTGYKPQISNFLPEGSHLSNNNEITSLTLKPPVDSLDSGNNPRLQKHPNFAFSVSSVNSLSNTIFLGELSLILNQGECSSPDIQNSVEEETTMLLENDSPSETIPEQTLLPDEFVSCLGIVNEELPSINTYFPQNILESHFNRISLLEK
# How it was run: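 IC50 values were fitted with a 4-parameter Hill equation to luciferase signal, scaled between IL-23-only wells (0% inhibition) and 30 μM reference inhibitor (100%). The readout was a STAT-inducible reporter in IL-23R/IL-12Rβ1 HEK293 cells, stimulated with added 10 ng/mL IL-23 (EC90) for 5 h at 37° C and developed with BioGlo.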
# [1] = tested on: IL-23-stimulated phosphorylated STAT3 in peripheral blood mononuclear cells (PBMCs); assay: PBMC pSTAT3 Assay; format: cell-based; settings: PBMCs from healthy donors; 30 min preincubation with peptide; IL-23 5 ng/mL for 30 min; phospho-STAT3 by MSD
# How it was run: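 Phospho-STAT3 quantified by Meso Scale assay in lysates of PBMCs exposed to IL-23 (5 ng/mL, 30 min, 37 °C) after 30 min peptide pretreatment. Cells were cryopreserved donor PBMCs activated 4 days with anti-CD3 plus IL-1β (100 ng/mL) and starved ~4 h; IC50 reported.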
Structure (SMILES),IC50 (IL-23R) [nM],IC50 [1] [nM]
"CC(=O)NCCCC[C@@H]1NC(=O)[C@H](Cc2c[nH]c3c(C)cccc23)NC(=O)[C@H]([C@@H](C)O)NC(=O)[C@H](CCCCCC(=O)CCC(=O)N[C@H](CC(=O)O)C[N+](C)(C)C)NC(=O)[C@@H](NC(=O)[C@@H](CCCNC(=N)N)NC(C)=O)C(C)(C)SSC(C)(C)[C@@H](C(=O)C[C@@H](Cc2ccc(OCCN)cc2)C(=O)N[C@@H](Cc2ccc3ccccc3c2)C(=O)NC2(C(=O)N[C@@H](CCCCNC(=O)COCCOCCNC(=O)COCCOCCNC(=O)CC[C@H](NC(=O)CCCCCCCCCCCCCCCCC(=O)O)C(=O)O)C(=O)N[C@@H](CC(N)=O)C(=O)N[C@@H](Cc3cccnc3)C(=O)N(C)CC(N)=O)CCOCC2)NC1=O [compound 37, MeCO-r-Pen(3)-K(d)-T-7MeW-K(Ac)-Pen(3)-AEF-2Nal-THP-K(PEG2PEG2gEC18OH)-N-3Pya-Sar-CONH2] (I: [2Nal][Thp]K([AEEA-AEEA-γGlu-C18 diacid])N[3Pal][Sar]-NH2 / II: Ac-[dR][Pen][X25]T[Trp(7-Me)]K(Ac); linker I:N-II:2-II:C via X19)",< 50,< 0.5
"CC(=O)NCCCC[C@@H]1NC(=O)[C@H](Cc2c[nH]c3c(C)cccc23)NC(=O)[C@H]([C@@H](C)O)NC(=O)[C@H](CCCCNC(=O)CCC(=O)N[C@H](CC(=O)O)C[N+](C)(C)C)NC(=O)[C@@H](NC(=O)[C@@H](CCCNC(=N)N)NC(C)=O)C(C)(C)SSC(C)(C)[C@@H](C(=O)N[C@@H](Cc2ccc(OCCNC(=O)COCCOCCNC(=O)COCCOCCNC(=O)CC[C@H](NC(=O)CCCCCCCCCCCCCCCCC(=O)O)C(=O)O)cc2)C(=O)N[C@@H](Cc2ccc3ccccc3c2)C(=O)NC2(C(=O)N[C@@H](CCC(=O)O)C(=O)N[C@@H](CC(N)=O)C(=O)N[C@@H](Cc3cccnc3)C(=O)N(C)CC(N)=O)CCOCC2)NC1=O [compound 10, MeCO-r-Pen(3)-K(d)-T-7MeW-K(Ac)-Pen(3)-AEF(PEG2PEG2gEC18OH)-2Nal-THP-E-N-3Pya-Sar-CONH2] (Ac-[dR][Pen]K([Suc-X2])T[Trp(7-Me)]K(Ac)[Pen][AEF]([AEEA-AEEA-γGlu-C18 diacid])[2Nal][Thp]EN[3Pal][Sar]-NH2; disulfide 2-7)",< 50,0.5 to 5
"CC(=O)N(C)CCCC[C@@H]1NC(=O)[C@H](Cc2c[nH]c3c(C)cccc23)NC(=O)[C@H]([C@@H](C)O)NC(=O)[C@H](CC(=O)N(C)C)NC(=O)[C@@H](NC(=O)CCOCCOCC[N+](C)(C)C)C(C)(C)SSC(C)(C)[C@@H](C(=O)N[C@@H](Cc2ccc(CCCCCC[N+](C)(C)CCOCCOCCNC(=O)COCCOCCNC(=O)CC[C@H](NC(=O)CCCCCCCCCCCCCCCCC(=O)O)C(=O)O)cc2)C(=O)N[C@@H](Cc2ccc3ccccc3c2)C(=O)NC2(C(=O)N[C@@H](CC(N)=O)C(=O)N[C@@H](Cc3cccnc3)C(=O)N(C)CC(=O)N(C)C)CCOCC2)NC1=O [compound 143, cPEG3aCO-Pen(3)-N(N(Me)2)-T-7MeW-K(NMeAc)-Pen(3)-TMAPF(PEG2PEG2gEC18OH)-2Nal-THP-N-3Pya-Sar-CON(Me)2] ({Me3N+(CH2)2O(CH2)2O(CH2)2CO}-[Pen]D(NMe2)T[Trp(7-Me)][Lys(Me)](Ac)[Pen][X4]([AEEA-γGlu-C18 diacid])[2Nal][Thp]N[3Pal][Sar]-NMe2; disulfide 1-6)",≥ 500,≥ 5
"CC(=O)NCCCC[C@@H]1NC(=O)[C@H](Cc2c[nH]c3c(C)cccc23)NC(=O)[C@H]([C@@H](C)O)NC(=O)[C@H](CC(N)=O)NC(=O)[C@@H](NC(=O)CCOCCOCC[N+](C)(C)C)C(C)(C)SSC(C)(C)[C@@H](C(=O)N[C@@H](Cc2ccc(OCCCCC[N+](C)(C)C)cc2)C(=O)N[C@@H](Cc2ccc3ccccc3c2)C(=O)NC2(C(=O)N[C@@H](CCCCNC(=O)COCCOCCNC(=O)COCCOCCNC(=O)CC[C@H](NC(=O)CCCCCCCCCCCCCCCCCCC(=O)O)C(=O)O)C(=O)N[C@@H](N)C(=O)N[C@@H](Cc3ccccn3)C(=O)N(C)CC(N)=O)CCOCC2)NC1=O [compound 126, cPEG3aCO-Pen(3)-N(N(Me)2)-T-7MeW-K(NMeAc)-Pen(3)-TMAPF-2Nal-THP-K(PEG2PEG2gEC20OH)-N-3Pya-Sar-CON(Me)2]",< 50,< 0.5
